Data reported in paper PMC10671052, “Naphthyl-Substituted Indole and Pyrrole Carboxylic Acids as Effective Antibiotic Potentiators—Inhibitors of Bacterial Cystathionine γ-Lyase” (International Journal of Molecular Sciences, 2023).

Legend:
physchem = assay type: physicochemical; settings: 25 °C, pH 7.4, aqueous buffer, kinetic from dmso stock, Solubility
Description: A stock solution of a compound (10 mM in DMSO, 10 μL) was added to 990 μL of 100 mM sodium phosphate buffer (pH 7.4) and incubated at 25 °C for 2 h with constant shaking. The suspension was filtered through the PVDF membrane filter (Merck Millipore, Burlington, MA, USA). To 320 µL of the filtrate, 80 µL of acetonitrile was added and mixed. The mixture was transferred to a vial and analyzed by ultra-high-performance liquid chromatography (UHPLC) with UV detection. Concentrations were calculated from a 5-point calibration curve. The calibration range was 1 to 100 μM. The controls were diclofenac and nicardipine. All compounds were tested in triplicate.

[1] = LogD7.4, miniaturized shake flask method; assay type: physicochemical; settings: 1-octanol / 100 mM sodium phosphate buffer pH 7.4
Description: Coefficients of distribution between 1-octanol and 100 mM sodium phosphate buffer (pH 7.4) were determined by the miniaturized shake flask method. Namely, 5 μL of a 10 mM compound’s solution in DMSO was dissolved in 245 μL of 1-octanol saturated with phosphate buffer. Next, 500 μL of phosphate buffer saturated with 1-octanol was added, followed by mixing for 3 h. […] After that, 50 μL of the octanol phase (top layer) was aspirated and diluted with 500 μL of 1-octanol saturated with phosphate buffer. Then, the remaining octanol phase was removed; 50 μL of the buffer layer was aspirated and diluted with 500 μL of phosphate buffer saturated with 1-octanol. Both the octanol and phosphate buffer samples were analyzed by LC–MS/MS. The distribution coefficient was determined according to the following equation: logD7.4 = log10 (peak area for octanol sample/peak area for buffer sample). […] All compounds were tested in triplicate.

Caco-2 cell permeability = assay type: in vitro ADME; settings: human
Description: (§1) The culture medium consisted of high-glucose DMEM containing 10% of fetal bovine serum, 4 mM L-glutamine, 1% of a solution of nonessential amino acids (PanEco, Moscow, Russia), 100 U/mL penicillin, and 100 μg/mL streptomycin. The cells were maintained for 21 days at 37 °C and 5% CO2. The medium was refreshed every 3 days. A Lucifer yellow rejection assay was applied to determine cell monolayer integrity. […] The Lucifer yellow rejection value was calculated using the equation: LY % rejection = 100*(1−FIb/FIa), where FIb is the fluorescence in the basolateral compartment and FIa is the fluorescence in the apical compartment. […] Both apical-to-basolateral (AB) and basolateral-to-apical (BA) transport were assessed. For apical-to-basolateral transport, 0.3 mL of a test compound solution was added to the apical side, and 0.8 mL of HBSS with 0.5% of BSA was added to the basolateral side. For basolateral-to-apical transport, 0.8 mL of a test compound solution was added to the basolateral side and 0.3 mL of HBSS with 0.5% of BSA was added to the apical side. The Caco-2 cell monolayers were then incubated for 2 h at 37 °C. The pH values of the apical and basolateral compartments were 7.4. […] The supernatant was transferred to a vial and analyzed by liquid chromatography coupled with tandem MS (LC–MS/MS). The AB (or BA) apparent permeability coefficients (Papp, 10^–6 cm/s) were calculated according to the following formula [40, 41]: Papp = (V × ∆C)/(∆t × A × C0), where V is the volume of the receiver compartment (cm^3), C0 is the initial drug concentration in the donor compartment (μM), ∆C is the concentration in the receiver compartment (μM), ∆t is the incubation time (s), and A is the surface area of the cell monolayer (cm^2). An efflux ratio was calculated by dividing Papp (BA) by Papp (AB). All compounds were tested in duplicate.

Caco-2 cell monolayer = assay: Caco-2 cell permeability; assay type: in vitro ADME; settings: Papp (BA) / Papp (AB); listed as lead compound
Description: as §1

## O=C(O)c1cc2ccccc2n1Cc1cccc2ccccc12 [Compound 2a]
physchem
  solubility at 2 h: > 100 µM
[1]; listed as 2а
  Measured logD7.4: 2.14±0.14
[1]; listed as lead compound
  Measured logD7.4: 1–3
Caco-2 cell permeability; Caco-2, Papp (BA) / Papp (AB)
  efflux ratio at 2 h, 10 μM: 1.13
Caco-2 cell permeability; Caco-2, 10 μM, 2 h, pH 7.4
  Papp A→B at 2 h, 10 μM: 43.3 ± 2.8 ×10⁻⁶ cm/s
  Papp B→A at 2 h, 10 μM: 49.1 ± 6 ×10⁻⁶ cm/s
Caco-2 cell monolayer
  Efflux ratio: less than 2.0
